One compound from patent US20100249107A1, “Biomarkers for Alzheimer's Disease Progression” (priority 2006, published 2010) can be followed below.

The test system of the experiment is patients suffering from MCI. The experiment is described as follows: InDDEx (ENA713B IA07) clinical trial: conversion from MCI to AD. The class given is in vivo, human. From the text:
Introduction and summary. The purpose of this EXAMPLE is to describe genetic association studies identifying twenty-five (25) AD-associated mutations of the invention. Genome-wide analyses for genetic association studies have only become possible within the past two years. The Investigation Into Delay to Diagnosis of Alzheimer's Disease With Exelon (InDDex; ENA713B IA07) clinical trial followed patients suffering from MCI and given either Exelon (rivastigmine) at various doses or placebo and followed their conversion to AD.

SMILES strings stand for the structures.

For `CCN(C)C(=O)Oc1cccc([C@H](C)N(C)C)c1` [Exelon, rivastigmine], the “Converted to AD, %” value was determined as 17.32% (All patients (enrolled in and completed the clinical study), Exelon arm n = 508); 17.06% (Genome scan population (consented for pharmacogenetic study and passed the 100K scan), Exelon arm n = 211).
